Results: the NIST ThermoML archive (doi:10.1016/j.jct.2018.12.009)

Conditions: for vapor or sublimation pressure: Liquid, Closed cell (Static) method; for mass density: Fluid (supercritical or subcritical phases), isochoric method

CC(C)O [propan-2-ol]
Conditions	vapor or sublimation pressure [kPa]
301.24 K	7
314.26 K	15
314.29 K	15
314.52 K	15
314.8 K	16
315.05 K	16
315.3 K	16
315.42 K	16
315.61 K	16
315.8 K	17
341.91 K	57
342.03 K	57
342.08 K	57
342.2 K	57
342.32 K	58
342.49 K	58
342.67 K	58
342.79 K	59
342.91 K	59
343.03 K	59
369.05 K	169
369.13 K	169
369.16 K	169
369.28 K	170
369.39 K	171
369.5 K	171
369.67 K	172
369.84 K	173
369.96 K	174
370.07 K	175
391.32 K	358
391.5 K	360
391.53 K	360
391.54 K	360
391.65 K	362
391.76 K	363
391.87 K	364
391.98 K	366
392.09 K	367
392.2 K	368
416.55 K	732
416.65 K	734
416.73 K	736
416.76 K	736
416.86 K	739
416.97 K	741
417.08 K	743
417.18 K	745
417.29 K	747
417.4 K	749
417.5 K	756
442.12 K	1367
442.14 K	1368
442.23 K	1371
442.33 K	1374
442.43 K	1377
442.54 K	1381
442.64 K	1383
442.74 K	1386
442.85 K	1389
463.48 K	2136
463.56 K	2140
463.58 K	2141
463.78 K	2149
463.83 K	2152
463.97 K	2158
464.18 K	2166
464.27 K	2171
464.42 K	2177
464.97 K	2201
465.27 K	2213
465.34 K	2217
468.1 K	2330
482.51 K	3081
482.6 K	3085
482.7 K	3089
482.72 K	3090
482.8 K	3093
482.89 K	3098
482.99 K	3102
483.09 K	3106
483.18 K	3110
500.85 K	4213
500.95 K	4219
501.04 K	4224
501.08 K	4226
501.14 K	4229
501.23 K	4235
501.33 K	4240
501.42 K	4245
501.53 K	4251
501.62 K	4256
501.81 K	4267
501.9 K	4272
503.92 K	4428
504.02 K	4438
504.03 K	4436
504.11 K	4366
504.31 K	4456
504.5 K	4470
504.59 K	4477
504.98 K	4504
505.06 K	4521
505.08 K	4522
505.27 K	4536
505.37 K	4544
506.43 K	4667
506.53 K	4675
506.61 K	4648
506.62 K	4682
506.72 K	4690
506.82 K	4697
506.96 K	4708
506.97 K	4709
507.11 K	4720
507.2 K	4727
507.3 K	4735
507.4 K	4743
507.5 K	4750
507.59 K	4757
507.69 K	4765
507.79 K	4773
507.89 K	4781
508.04 K	4793
508.16 K	4803

Conditions	mass density [kg/m3]
508.16 K, 4803 kPa	329.2
508.18 K, 4804 kPa	329.2
508.28 K, 4813 kPa	329.2
508.37 K, 4822 kPa	329.2
508.47 K, 4831 kPa	329.2
508.57 K, 4840 kPa	329.2
508.67 K, 4849 kPa	329.2
508.76 K, 4858 kPa	329.2
509.35 K, 4911 kPa	329.2
509.45 K, 4920 kPa	329.2
509.5 K, 5095 kPa	329.2
509.55 K, 4929 kPa	329.2
509.64 K, 4938 kPa	329.2
509.79 K, 4951 kPa	329.2
509.99 K, 4967 kPa	329.2
510.14 K, 4981 kPa	329.2
510.23 K, 4990 kPa	329.2
510.33 K, 4999 kPa	329.2
510.48 K, 5012 kPa	329.2
510.93 K, 5271 kPa	329.2
516.9 K, 5603 kPa	329.2
516.99 K, 5611 kPa	329.2
517.08 K, 5619 kPa	329.2
517.27 K, 5637 kPa	329.2
521.87 K, 6056 kPa	329.2
521.96 K, 6064 kPa	329.2
522.14 K, 6080 kPa	329.2
522.33 K, 6397 kPa	329.2
522.42 K, 6405 kPa	329.2
522.51 K, 6414 kPa	329.2
522.6 K, 6495 kPa	329.2
